Assay [1] has as its target T1, CydDC (C-His6-CydDC) (Escherichia coli, UniProt P23886+P29018, P29018:INS2NS).
T1 construct: gene cydD; full-length heterodimer (64 + 63 kDa); plasmid pHX100 in E. coli BL21
Description: stimulation of ATPase activity (colorimetric Pi release). The format is biochemical. As to conditions: peak 2 in 0.02% DDM; 5 mM compound; 2 mM ATP, 10 mM MgCl2, pH 7.5, 37 °C; activator.

For assay [2], the target named is T1, CydDC (C-His6-CydDC). The assay is described as above. The assay is classed as biochemical.

Consider `N[C@@H](Cc1cnc[nH]1)C(=O)O` [L-histidine], for which the “% of basal ATPase activity at 5 mM” value in assay [1] is “Significant changes in ATPase activity were invoked only with thiols and L-histidine”.
Regarding `N[C@@H](CS)C(=O)O` [cysteine], the 50% effective concentration (EC50) in assay [2] was determined as 26 ± 3 µM.
